In the supplement of paper PMC11061612:

What was measured:
[1] = test system: TC-YIK (Other Solid Carcinomas); experiment: combination Emax (second highest fraction inhibited in the dose matrix, 72 h); higher = more inhibition; extreme values may be limits of the assay
In short: (§1)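 Cell lines in DMEM/F12 or RPMI with 10% FBS were plated in 1536-well plates, held 24 hours at 37°C, 5% CO2, then given two-drug dose matrices for 72 hours (DMSO typically 0.2%). Viability was read by CellTiter-Glo 2.0 luminescence and scaled as inhibition from 0 (vehicle wells) to 1 (blank wells). Combination Emax is the second-highest inhibition in the matrix; Bliss excess is observed combination effect minus expected EA + EB − EA·EB, EA and EB being single-agent effects.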

[2] = test system: FU-OV-1 (Ovarian Carcinoma); experiment: as above
In short: as §1

MCF7 (Breast Carcinoma) = experiment: Bliss excess, mean over the matrix (fraction); higher = more synergy
In short: as §1

[3] = test system: TC-YIK (Other Solid Carcinomas); experiment: as above
In short: as §1

[4] = test system: CAL-39 (Other Solid Carcinomas); experiment: as above
In short: as §1

[5] = test system: SK-LMS-1 (Other Solid Carcinomas); experiment: as above
In short: as §1

[6] = test system: HLE (Hepatocellular Carcinoma); experiment: as above
In short: as §1

[7] = test system: FU-OV-1 (Ovarian Carcinoma); experiment: as above
In short: as §1

SK-MEL-1 (Melanoma) = experiment: as above
In short: as §1

[8] = test system: HCC1143 (Breast Carcinoma); experiment: as above
In short: as §1

D-392MG (Glioblastoma) = experiment: as above
In short: as §1

Saos-2 (Osteosarcoma) = experiment: as above
In short: as §1

[9] = test system: YT (Other Blood Carcinomas); experiment: as above
In short: as §1

[10] = test system: DOK (Oral Cavity Carcinoma); experiment: as above
In short: as §1

[11] = test system: PA-TU-8902 (Pancreatic Carcinoma); experiment: as above
In short: as §1

[12] = test system: KG-1 (Acute Myeloid Leukemia); experiment: as above
In short: as §1
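Wherever Bliss excess, mean over the matrix is given: after 72 h of two-drug dosing.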

Row | SMILES | combination Emax [1] | combination Emax [2] | Bliss excess (MCF7 (Breast Carcinoma)) | Bliss excess [3] | Bliss excess [4] | Bliss excess [5] | Bliss excess [6] | Bliss excess [7] | Bliss excess (SK-MEL-1 (Melanoma)) | Bliss excess [8] | Bliss excess (D-392MG (Glioblastoma)) | Bliss excess (Saos-2 (Osteosarcoma)) | Bliss excess [9] | Bliss excess [10] | Bliss excess [11] | Bliss excess [12]
1 | COc1cc2ncnc(Nc3ccc(F)c(Cl)c3)c2cc1OCCCN1CCOCC1 [Gefitinib] + CC(C)n1c(=O)n(C)c2cnc3cc(F)c(-c4ccc(OCCCN5CCCCC5)nc4)cc3c21 [AZD1390] (first compound max 10 µM, 7x7, partner max 0.3 µM) | 0.188 | 0.296 | -0.0395 | -0.046 | -0.0004 | -0.0726 | -0.0487 | -0.0717 | 0.0081 | -0.0572 | -0.086 | -0.0621 | -0.0513 | -0.0341 | -0.0693 | -0.0507
2 | CS(=O)(=O)CCNCc1ccc(-c2ccc3ncnc(Nc4ccc(OCc5cccc(F)c5)c(Cl)c4)c3c2)o1 [Lapatinib] + C[C@@H](Oc1cc(-c2cnn(C3CCNCC3)c2)cnc1N)c1c(Cl)ccc(F)c1Cl [Crizotinib] (first compound max 10 µM, 7x7, partner max 10 µM) | 0.957 | 0.696 | -0.0386 | -0.0828 | 0.026 | -0.0611 | -0.072 | -0.0304 | -0.0827 | -0.0312 | -0.0528 | -0.0452 | -0.081 | -0.0302 | 0.0068 | -0.0028
3 | CC(=O)c1c(C)c2cnc(Nc3ccc(N4CCNCC4)cn3)nc2n(C2CCCC2)c1=O [Palbociclib] + CC1(C)CCC(CN2CCN(c3ccc(C(=O)NS(=O)(=O)c4ccc(NCC5CCOCC5)c([N+](=O)[O-])c4)c(Oc4cnc5[nH]ccc5c4)c3)CC2)=C(c2ccc(Cl)cc2)C1 [Venetoclax] (first compound max 10 µM, 7x7, partner max 1 µM) | 0.534 | 0.175 | -0.0334 | -0.0713 | -0.0566 | -0.0316 | -0.0399 | -0.0496 | -0.0353 | -0.0237 | -0.07 | -0.0417 | -0.13 | -0.0542 | -0.029 | 0.0888
4 | CC(=O)c1c(C)c2cnc(Nc3ccc(N4CCNCC4)cn3)nc2n(C2CCCC2)c1=O [Palbociclib] + Cc1c2c(nn1C)CSCc1cc(n(C)n1)CSc1cc(c3ccccc3c1)OCCCc1c(C(=O)O)n(C)c3c-2c(Cl)ccc13 [AZD5991] (first compound max 10 µM, 7x7, partner max 1 µM) | 0.547 | 0.235 | -0.103 | -0.0144 | 0.0054 | -0.0081 | -0.0339 | -0.0538 | -0.0014 | 0.0011 | 0.0189 | -0.0197 | 0.0006 | -0.0363 | -0.0469 | -0.0169
5 | CC(=O)c1c(C)c2cnc(Nc3ccc(N4CCNCC4)cn3)nc2n(C2CCCC2)c1=O [Palbociclib] + Cn1cnc2c(F)c(Nc3ccc(Br)cc3Cl)c(C(=O)NOCCO)cc21 [Selumetinib] (first compound max 10 µM, 7x7, partner max 10 µM) | 0.729 | 0.4 | -0.0013 | 0.001 | 0.151 | 0.0539 | -0.0418 | 0.0004 | -0.0559 | 0.0325 | -0.0665 | -0.0402 | -0.0471 | 0.0057 | 0.0639 | -0.0108
6 | C[C@@H](c1ccc2nccn2c1)n1nnc2ncc(-c3cnn(C)c3)nc21 [Savolitinib] + CC1(C)CCC(CN2CCN(c3ccc(C(=O)NS(=O)(=O)c4ccc(NCC5CCOCC5)c([N+](=O)[O-])c4)c(Oc4cnc5[nH]ccc5c4)c3)CC2)=C(c2ccc(Cl)cc2)C1 [Venetoclax] (first compound max 1 µM, 7x7, partner max 1 µM) | 0.108 | 0.2 | -0.042 | -0.0506 | -0.0687 | 0.0121 | -0.0232 | -0.0389 | -0.0144 | -0.0361 | -0.0454 | -0.0259 | -0.0346 | -0.0578 | -0.11 | -0.015
7 | C[C@@H](c1ccc2nccn2c1)n1nnc2ncc(-c3cnn(C)c3)nc21 [Savolitinib] + Cc1c2c(nn1C)CSCc1cc(n(C)n1)CSc1cc(c3ccccc3c1)OCCCc1c(C(=O)O)n(C)c3c-2c(Cl)ccc13 [AZD5991] (first compound max 1 µM, 7x7, partner max 1 µM) | 0.193 | 0.204 | -0.0242 | 0.003 | -0.0722 | 0.0027 | -0.0053 | -0.056 | -0.0235 | 0.0108 | -0.001 | -0.0405 | -0.0156 | -0.0681 | -0.0699 | -0.0383
8 | Cn1cnc2c(F)c(Nc3ccc(Br)cc3Cl)c(C(=O)NOCCO)cc21 [Selumetinib] + C=CCn1c(=O)c2cnc(Nc3ccc(N4CCN(C)CC4)cc3)nc2n1-c1cccc(C(C)(C)O)n1 [AZD1775] (first compound max 10 µM, partner max 1 µM) | 0.826 | 0.47 | -0.079 | -0.03 | 0.0116 | 0.0059 | -0.0358 | -0.015 | 0.0121 | -0.0112 | -0.0367 | -0.0072 | 0.0002 | 0.0043 | 0.0655 | 0.0445
9 | Cn1cnc2c(F)c(Nc3ccc(Br)cc3Cl)c(C(=O)NOCCO)cc21 [Selumetinib] + CC(C)n1c(=O)n(C)c2cnc3cc(F)c(-c4ccc(OCCCN5CCCCC5)nc4)cc3c21 [AZD1390] (first compound max 10 µM, 7x7, partner max 0.3 µM) | 0.466 | 0.431 | -0.0452 | 0.0473 | 0.0025 | -0.0429 | -0.0325 | -0.0109 | -0.0378 | 0.013 | -0.02 | -0.0577 | -0.03 | 0.021 | 0.0043 | 0.0053
10 | Cn1cnc2c(F)c(Nc3ccc(Br)cc3Cl)c(C(=O)NOCCO)cc21 [Selumetinib] + CCN(CCO)CCCOc1ccc2c(Nc3cc(CC(=O)Nc4cccc(F)c4)[nH]n3)ncnc2c1 [AZD2811] (first compound max 10 µM, 7x7, partner max 1 µM) | 0.874 | 0.405 | -0.0309 | -0.0495 | -0.0688 | -0.0047 | -0.0029 | 0.0176 | 0.0031 | 0.0298 | -0.0304 | 0.0334 | -0.0336 | -0.0864 | 0.0087 | 0.0789
11 | Cn1cnc2c(F)c(Nc3ccc(Br)cc3Cl)c(C(=O)NOCCO)cc21 [Selumetinib] + C[C@@H]1COCCN1C2=NC(=NC(=C2)C3(CC3)[S@](=N)(=O)C)C4=C5C=CNC5=NC=C4 [AZD6738] (first compound max 10 µM, 7x7, partner max 10 µM) | 0.865 | 0.487 | -0.0558 | -0.0582 | -0.0152 | 0.0453 | -0.0665 | 0.0621 | -0.0312 | -0.0207 | 0.0013 | -0.0349 | -0.064 | 0.0628 | 0.0428 | 0.0218
